Experiments:
SREBP [1] = assay: SREBP mRNA expression assay in HepG2 cells (RT-PCR); type: cell-based, human; settings: Homo sapiens, HepG2, 8 h, HepG2 cells, 300 nM rexinoids, 8 h, SREBP mRNA by RT-PCR; mean ± SD of 3 experiments; read-out: SREBP activation Fold induction vs. Control
Description: The goals of our structure–activity relationship (SAR) studies were to explore and discover new scaffolds that not only bind to RXR but also are able to independently modulate both iNOS and SREBP activity in accordance with a previously described screening paradigm. To characterize the effect of the novel rexinoids on SREBP elevation in vitro, HepG2 cells were treated with 300 nM rexinoids for 8 h and SREBP mRNA levels were measured by RT-PCR. SREBP expression ranged from no change to a 4.6-fold induction compared to the vehicle control when treated with the novel compounds. […] Analogs MSU- 41402, 41582, 41407, 41566, 41844, 41845, 42011, and 42166 induced an SREPB mRNA fold expression change of 1–1.5 normalized to a vehicle control, while bexarotene induced an mRNA fold expression change of > 2 (Table 1).
(§1) HepG2 were plated in 6-well plates (1 × 10^6 cells/well) and, after allowing the cells to attach overnight, were treated with 300 nM rexinoids and/or varying concentrations of T0901317 (TOCRIS # 2373), GSK 2033 (TOCRIS # 5694), HX 531 (TOCRIS # 3912) for 8 h. Total RNA was isolated with TRIzol (Invitrogen, Carlsbad, CA) and 2 µg RNA was used to synthesize cDNA using the SuperScript III reverse transcriptase kit (Invitrogen, Carlsbad, CA). Primers (IDT) for SREBP (F: 5′-GCCGGTTGATAGGCAGCTT-3′; R: 5′-GGTGAGTGGCGGAACCATT-3′) and GAPDH (F: 5′-[…]-3′; R: 5′-[…]-3′), the SYBR Green Supermix (Bio-rad Laboratories, Hercules, CA) and the QuantStudio 7 Flex Real-Time PCR system (95 °C for 20 s followed by 40 cycles of 95 °C for 15 s and 60 °C for 1 min were used to detect mRNA expression. Relative SREBP/GAPDH gene expression was calculated by the delta-delta Ct method. To evaluate protein expression by western blotting, HepG2 cells were plated as above and treated with 300 nM of rexinoids for 24 h. Cells were harvested and lysed in RIPA buffer (1 M Tris–Cl, 5 M NaCl, pH 7.4, 0.5 M EDTA, 25 mM sodium deoxycholate, 1% triton-X, 0.1% SDS, 0.0125% aprotinin) with protease inhibitors (1% PMSF/0.5% apoprotein/0.1%leupeptin). Protein concentration was measured using a BCA assay (Sigma-Aldrich). Proteins (10 µg/well) were separated in 10% SDS-PAGE gels and transferred to nitrocellulose membranes. Membranes were incubated with SREBP (Active Motif; 1:1000) and GAPDH (Santa Cruz Biotechnology; 1:8000) primary antibodies followed by anti-rabbit secondary antibodies conjugated to horseradish peroxidase (Cell Signaling). Signal was detected using the ECL Western Blotting Substrate (GE Healthcare), and protein levels quantified using ImageJ.

SREBP [2] = assay: SREBP protein expression in HepG2 cells (western blot); type: cell-based, human; settings: 300 nM rexinoids, 24 h
Description: Although we have confirmed that the iNOS assay correlates with in vivo efficacy, few investigators have used the induction of SREBP in vitro as a biomarker to predict the ability of novel rexinoids to increase triglycerides in vivo. Elevated triglycerides are a side-effect found with many RXR agonists in preclinical models and by bexarotene in humans[13],[14]. […] HepG2 human liver cells were used, as the liver is the major organ that regulates lipid homeostasis.
as §1

[3] = Plasma triglycerides in MMTV-neu mice fed rexinoids; type: in vivo; settings: MMTV-neu mice fed rexinoids for 10 days, n=5-6 mice/group
Description: fold expression triglyceride
Supplemental Fig 1. Correlation of SREPB mRNA expression and triglyceride levels. HepG2 human liver cells were treated with 300 nM of rexinoids for 8 hr,and lysates analyzed by RT-PCR. Triglycerides in plasma from MMTV-neu mice fed rexinoids for10 days were measured using a commercial kit(Abcam). *, p <0.01 vs control; **, p<0.05 vs bex and LG268; n=5-6 mice/group.

[4] = Mouse weights as a marker of drug toxicity; type: in vivo, A/J mice; settings: rexinoids in diet; initial week 6, final week 20
From the text: Mouse weights were monitored as a marker of drug toxicity (Supplemental Fig. 3). […] There were no significant differences in the average weights between groups of mice on single drugs.
Control Bexarotene 42011 C/P Bex + C/P 42011 + C/P
Initial weight Final weight
Supplemental Fig 3: Mouse weights. A/J mice were weighed weekly during the study. Values shown represent average mouse weights (n = 14-15/group) before treatment diets (initial weight at week 6) and at the end of the study (final weight at week 20). * p < 0.01 compared to control, # p < 0.01 compared to bexarotene, ! p < 0.05 compared to MSU-42011 (one-way ANOVA followed by Tukey HSD); ** p < 0.05, *** p < 0.01 (two-tailed t test).

## C=C(c1ccc(C(=O)O)cc1)c1cc2c(cc1C)C(C)(C)CCC2(C)C [Bexarotene]
SREBP [1]
  fold induction at 0.3 µM: > 2
SREBP [2]
  SREBP protein levels compared to DMSO control: increased SREBP protein levels
[3]
  Plasma triglyceride levels in mice: 2.38 ± 0.3 nmol/µL
[4]
  Mouse weights during the study: gained weight as expected

— article PMC7746742, “The novel rexinoid MSU-42011 is effective for the treatment of preclinical Kras-driven lung cancer” (Scientific Reports, 2020)
